According to patent US20070213291A1, “Therapeutically useful synthetic oligonucleotides” (priority 1999, published 2007):

Experiments:
Format in all cases: cell-based
[1] = tested on: Jurkat human leukemia T cells; experiment: Apoptosis by phosphatidylserine/annexin V-FITC flow cytometry; conditions: 50 μM sequence
Method: (§1) The redistribution of phosphatidylserine in the plasma membrane during apoptosis was measured by flow cytometry using FITC-conjugated annexin V (BD Pharmingen, San Diego, Calif.). NuMA release into the supernatant was determined using a commercial ELISA kit (Oncogen/Calbiochem, Cambridge, Mass.).
Jurkat human leukemia T cells were incubated with 50 μM of 3, 4, 5, 6 and 7 GT base sequences, a 5 base ACGT sequence, 6 base AG, GG, AGT and CGT sequences and a 7 base GG sequence. […]
Jurkat human leukemia T cells were incubated with GT-rich or AC-rich sequences derived from the murA gene of Mycobacterium phlei (GenBank: Accession Number X99776). Inhibition of proliferation was measured by the reduction of MTT as in Example 3, cell cycle arrest was detected by flow cytometry using propidium iodide as in Example 21 and apoptosis was evaluated by flow cytometry using annexin-V-FITC as in Example 23.

[2] = tested on: Jurkat human leukemia T cells; experiment: Inhibition of Jurkat human leukemia T cell proliferation (MTT reduction); conditions: 100 μg/ml sequence, 48 h, 2.5×10^5 cells/ml
How it was run: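 Read-out is MTT absorbance at 570 nm after 48 h. Sequences of 2 to 45 bases (A, C, G, T) tested at 100 μg/ml against untreated control, with 2.5×10^5 Jurkat cells/ml held at 37° C under 5% CO2.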

[3] = tested on: human peripheral blood mononuclear cells; experiment: Cytokine production by human PBMC (ELISA); conditions: PBMC of 7 healthy humans, 100 μg/ml, 48 h
Method: (§2) Unless stated otherwise, 1×10^6 cells were incubated with 100 μg/ml of each of the sequences tested for 48 h at 37° C. in 5% CO2. Production of cytokines IL-6, IL-10, IL-12, IL-1beta and TNF-alpha was determined in pg/ml in 100 μl of culture supernatant using the appropriate commercial ELISA (BioSource, Camarillo Calif.). The IL-12 ELISA measures both IL-12 p70 complex and free p40 subunit. Results are expressed as the “fold” (×) increase in cytokine production by treated cells compared to control cells.
Peripheral blood mononuclear cells (hereinafter, “PBMCs”) were isolated from 7 healthy humans by Ficoll-Hypaque (Amersham Pharmacia Biotech, Baie d'Urfée, Québec, Canada) by density gradient centrifugation of whole blood. PBMCs were incubated with 6 base GT, AGT, CGT, AG, CG and GG sequences and production of the cytokines IL-1beta, IL-6, IL-10 and IL-12 were determined.

[4] = tested on: rhesus monkey PBMCs; experiment: Cytokine production by rhesus monkey PBMC (ELISA); conditions: PBMC of 4 healthy rhesus monkeys, 100 μg/ml, 48 h
Method: as §2
PBMCs were isolated from 4 healthy rhesus monkeys as in Example 35. PBMCs were incubated with 6 base GT, AGT, CGT, AG, CG ands GG sequences and production of the cytokines IL-6, IL-12 and TNF-alpha was determined (Table 42).

[5] = tested on: THP-1 human acute monocytic leukemia cells; experiment: Cytokine production by THP-1 cells (ELISA); conditions: THP-1, 1×10^6 cells, 100 μg/ml, 48 h; for ↑ IL-12 (fold increase treated vs control cells): p70 complex and free p40
How it was run: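 Read-out is fold increase in supernatant cytokine versus control cells, measured by ELISA (IL-12 ELISA counts p70 complex plus free p40). Unless noted, sequences were tested at 100 μg/ml on 1×10^6 cells, incubated 48 h, 37° C, 5% CO2.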

[6] = tested on: Jurkat human leukemia T cells; experiment: NuMA release into supernatant (ELISA); conditions: for % NuMA released (treated vs untreated cells): Jurkat, 50 μM sequence
Method: as §1
Jurkat human leukemia T cells were incubated with 50 μM of 3, 4, 5, 6 and 7 GT base sequences, a 5 base ACGT sequence, 6 base AG, GG, AGT and CGT sequences and a 7 base GG sequence.
Jurkat human leukemia T cells (1×10^6/ml) were incubated with 6 and 27 GT base sequences (Table 32). NuMA was determined as in Example 23.
Jurkat human cell leukemia T cells were incubated for 24 h with 6 base GT SEQ ID NO:25, complementary 6 base AC SEQ ID NO:79, and 6 base GT SEQ ID NO:25+6 base AC SEQ ID NO:79. GT SEQ ID NO:25 and AC SEQ ID NO:79 were hybridized by mixing the sequences (1:1) and heating for 10 minutes at 65° C. As controls, GT SEQ ID NO:25 and AC SEQ ID NO:79 were heated for 10 minutes at 65° C. (Table 33). Apoptosis was evaluated as in Example 23.

[7] = tested on: chimpanzee PBMCs; experiment: Cytokine production by chimpanzee PBMC (ELISA); conditions: PBMC of 4 healthy chimpanzees, 100 μg/ml, 48 h
Method: as §2
PBMCs were isolated from 4 healthy chimpanzees as in Example 35. Chimpanzee PBMCs were incubated with 6 base GT, AGT, CGT, AG, CG and GG sequences and production of the cytokines IL-10, IL-12 and TNF-alpha was determined (Table 41).

[8] = tested on: Jurkat human leukemia T cells; experiment: Cell cycle stage in Jurkat cells (propidium iodide flow cytometry); conditions: Jurkat, 24 h, 100 μg/ml
How it was run: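 Phase distribution (G0/G1, early, mid and late S, G2/M) came from flow cytometry with doublet discrimination on propidium iodide-stained nuclei. Jurkat cells were given 24 h exposure to 2–45-base oligonucleotides, or at 1×10^6 cells/ml to single 6-base GT or AC strands heated 10 min at 65 °C or 1:1 hybridized duplex.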

| Substance | % of cells in apoptosis (positive for PS/A-V staining) [1] [%] | % INHIBITION of Jurkat human leukemia T cell proliferation [2] [%] | IL-1 beta fold increase: mean +/− SD [3] | IL-6 fold increase: mean +/− SD [3] | IL-10 fold increase: mean +/− SD [3] | IL-12 fold increase: mean +/− SD [3] | IL-10 fold increase: mean +/− SD [4] | IL-12 fold increase: mean +/− SD [4] | TNF-alpha fold increase: mean +/− SD [4] | ↑ IL-6 (fold increase treated vs control cells) [5] [x] | ↑ IL-12 (fold increase treated vs control cells) [5] [x] | % NuMA released (treated vs untreated cells) [6] [%] | IL-10 fold increase: mean +/− SD [7] | IL-12 fold increase: mean +/− SD [7] | TNF-alpha fold increase: mean +/− SD [7] | further results |
| --- | --- | --- | --- | --- | --- | --- | --- | --- | --- | --- | --- | --- | --- | --- | --- | --- |
| AAGTAA [SEQ ID NO:27] | 20 | 13 | 1.3 +/− 0.5 fold increase | 9.6 +/− 7.3 fold increase | 1.0 +/− 0.1 fold increase | 2.4 +/− 2.2 fold increase | 0.9 +/− 0.1 fold increase | 7.6 +/− 2.6 fold increase | 6.0 +/− 5.0 fold increase | 12.8 | 6.0 | 56 | 2.1 +/− 1.1 fold increase | 13.2 +/− 8.2 fold increase | 7.9 +/− 3.9 fold increase |  |
| CCGTCC [SEQ ID NO:28] | 6 | 11 | 2.1 +/− 1.8 fold increase | 10.4 +/− 13.0 fold increase | 1.0 +/− 0.1 fold increase | 5.9 +/− 10.7 fold increase | 1.1 +/− 0.2 fold increase | 10.1 +/− 3.7 fold increase | 14.2 +/− 3.7 fold increase | 12.6 | 3.8 | 0 | 3.8 +/− 2.8 fold increase | 13.3 +/− 8.4 fold increase | 10.3 +/− 5.7 fold increase |  |
| CG(GT)1A (DNA CGGTA; unmodified DNA) [SEQ ID NO:80] | 6 |  |  |  |  |  |  |  |  |  |  | 9 |  |  |  |  |
| GG(GG)1GGG (DNA GGGTGGG; unmodified DNA) | 12 |  |  |  |  |  |  |  |  |  |  | 26 |  |  |  |  |
| GG(GT)1 | 21 |  |  |  |  |  |  |  |  |  |  | 64 |  |  |  |  |
| GGGCGG (unmodified DNA) [SEQ ID NO:46] | 16 | 23 | 1.2 +/− 0.3 fold increase | 15.8 +/− 16.2 fold increase | 1.0 +/− 0.1 fold increase | 3.0 +/− 3.8 fold increase | 1.2 +/− 0.2 fold increase | 11.0 +/− 4.4 fold increase | 16.8 +/− 4.1 fold increase | 9.8 | 2.3 | 11 | 4.7 +/− 3.4 fold increase | 15.8 +/− 10.4 fold increase | 14.1 +/− 6.6 fold increase |  |
| GGGGGG [SEQ ID NO:44] | 5 | 26 | 7.1 +/− 9.4 fold increase | 21.0 +/− 14.7 fold increase | 1.7 +/− 1.6 fold increase | 7.0 +/− 12.5 fold increase | 2.1 +/− 1.0 fold increase | 10.7 +/− 5.6 fold increase | 13.9 +/− 8.5 fold increase | 15.1 | 0.0 | 0 | 11.2 +/− 9.1 fold increase | 15.1 +/− 10.0 fold increase | 13.8 +/− 6.5 fold increase |  |
| GGGGTGG (unmodified DNA) [SEQ ID NO:62] | 30 | 41 |  |  |  |  |  |  |  |  |  | 123 |  |  |  |  |
| GGGTG (unmodified DNA) [SEQ ID NO:61] | 25 | 50 |  |  |  |  |  |  |  |  |  | 92 |  |  |  |  |
| GGGTGGGTGGGTGGGTGGGTGGGTGGG [SEQ ID NO:2] |  | 23 |  |  |  |  |  |  |  |  |  |  |  |  |  | % of cells in phase: G0/G1 [8]: 34.3%; % of cells in phase: G2/M [8]: 26.4%; % of cells in phase: SE [8]: 15.5%; % of cells in phase: SL [8]: 10.3%; % of cells in phase: SM [8]: 13.6%; Arrest (cell cycle) [8]: None; % NUMA RELEASED ([6]; Jurkat 1×10^6/ml): 49% |
| GGTG (unmodified DNA) [SEQ ID NO:56] | 24 | 54 |  |  |  |  |  |  |  |  |  | 112 |  |  |  |  |
| GGTGG (unmodified DNA) [SEQ ID NO:60] | 25 | 50 |  |  |  |  |  |  |  |  |  | 120 |  |  |  |  |
| GTGG (unmodified DNA) [SEQ ID NO:52] | 24 | 52 |  |  |  |  |  |  |  |  |  | 60 |  |  |  |  |
